Results as given in patent publication US9845308B2, “Isoindoline inhibitors of ROR-gamma” (Vitae Pharmaceuticals, Inc., priority 2014, dated 2017).

Assays:
[1] = molecular target: full-length RORγt in Jurkat cells (Homo sapiens (Human), UniProt P51449); assay: RORγt 5×RORE Assay in Jurkat Cells (Assay 2); format: cell-based; settings: 5xRORE secreted Nanoluc luciferase reporter, 16-18 hrs, read-out: RORγt5X IC50 Range* (nM) (Assay 2)
Description: [formula] RORγt 5×RORE Assay in Jurkat Cells (Assay 2)
Compounds of the present invention were tested for RORγ inverse agonist activity in a cell-based, transcriptional activity assay. […] (Promega, Cat. #N1021) using KpnI and HindIII restriction sites. […] Tested compounds were added to the cells in the same media (final concentration of DMSO was 0.1% (v/v)), and the plates were incubated at 37° C./5% CO2 for 16-18 hrs. Luciferase activity in the conditioned supernatants was determined with NanoGlo® assay reagents (Promega, Cat.#N1130).

[2] = molecular target: recombinant RORγ Ligand Binding Domain (LBD) protein (Homo sapiens (Human), UniProt P51449); assay: Radio-Ligand RORγ Binding Assay (Assay 1); settings: competition with 25-hydroxy[26,27-3H]-cholesterol, SPA; read-out: RORγ Binding Ki Range* (nM) (Assay 1)
Sequence of recombinant RORγ Ligand Binding Domain (LBD) protein (P51449 269-508): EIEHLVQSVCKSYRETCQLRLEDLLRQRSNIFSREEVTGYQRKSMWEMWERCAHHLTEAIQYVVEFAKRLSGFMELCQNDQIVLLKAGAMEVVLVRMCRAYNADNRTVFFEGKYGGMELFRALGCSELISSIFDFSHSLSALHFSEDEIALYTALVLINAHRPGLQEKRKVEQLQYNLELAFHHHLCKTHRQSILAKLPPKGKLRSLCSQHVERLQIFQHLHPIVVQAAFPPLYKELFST
Description: Radio-Ligand RORγ Binding Assay (Assay 1)
Compounds of the present invention were tested for ability to bind to RORγ in a cell-free competition assay with commercially available radio-ligand (RL), 25-hydroxy[26,27-^3H]-cholesterol (PerkinElmer, Cat. #NET674250UC), for a ligand binding site on a recombinant RORγ Ligand Binding Domain (LBD) protein expressed as a 6×His-Glutathione-S-Transferase (GST) fusion. […] The plate was shaken at 700 rpm for 20 min and incubated for 10 min at rt, after which 40 μL of poly-Lys YSi SPA beads (PerkinElmer, Cat. #RPNQ0010) were added to achieve 50 μg of the beads per well. The plate was incubated on an orbital shaker for 20 min and then for 10 min without agitation at rt. SPA signal for tritium beta radiation was registered on PerkinElmer Microbeta plate reader. […] The percent inhibition vs. concentration data were fit into a four-parameter model, and IC50 values were calculated from the fit as the concentrations corresponding to the inflection points on the dose-response curves. […]

Sequence of full-length RORγt in Jurkat cells (P51449 other isoform, or with tags, fused parts or gaps): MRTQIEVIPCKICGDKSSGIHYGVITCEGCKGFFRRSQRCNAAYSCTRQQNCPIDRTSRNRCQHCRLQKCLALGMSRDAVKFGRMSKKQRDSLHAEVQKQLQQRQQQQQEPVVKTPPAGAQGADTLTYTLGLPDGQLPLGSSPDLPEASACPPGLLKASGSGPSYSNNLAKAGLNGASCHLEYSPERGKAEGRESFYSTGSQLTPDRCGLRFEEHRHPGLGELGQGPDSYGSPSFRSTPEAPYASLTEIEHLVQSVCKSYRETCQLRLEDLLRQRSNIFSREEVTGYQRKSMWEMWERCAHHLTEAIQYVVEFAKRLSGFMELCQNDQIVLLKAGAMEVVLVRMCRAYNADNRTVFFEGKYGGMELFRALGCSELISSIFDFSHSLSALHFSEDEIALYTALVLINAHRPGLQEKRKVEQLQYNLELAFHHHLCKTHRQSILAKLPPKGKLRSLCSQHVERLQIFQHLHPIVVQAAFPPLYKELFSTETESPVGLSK

| Compound | IC50 [1] [nM] | Ki [2] [nM] |
| --- | --- | --- |
| CCS(=O)(=O)c1ccc(CNC(=O)c2ccc3c(c2)CN(CC2CCC(O)(C(F)(F)F)CC2)C3C(C)C)cc1 (single isomer, unassigned) [Compound 12d, N-(4-(ethylsulfonyl)benzyl)-2-((4-hydroxy-4-(trifluoromethyl)cyclohexyl)methyl)-1-isopropylisoindoline-5-carboxamide] | < 100 | < 100 |
| CCS(=O)(=O)c1ccc(CNC(=O)c2ccc3c(c2)CN(CC2CCC(O)(C(F)(F)F)CC2)C3C(C)C)cc1 (single isomer, unassigned) [Compound 12c, N-(4-(ethylsulfonyl)benzyl)-2-((4-hydroxy-4-(trifluoromethyl)cyclohexyl)methyl)-1-isopropylisoindoline-5-carboxamide] | 100 to 1000 | < 100 |
| CCS(=O)(=O)c1ccc(CNC(=O)c2ccc3c(c2)CN(C[C@H]2CO[C@H](C(F)(F)F)OC2)[C@H]3C(C)C)nc1 (single isomer, unassigned) [Compound 32a] | < 100 | < 100 |
| CCS(=O)(=O)c1ccc([C@H](CCO)NC(=O)c2ccc3c(c2)CN(C[C@H]2CC[C@H](C(F)(F)F)CC2)[C@@H]3C(C)C)cc1 [Compound 6b] | 100 to 1000 | < 100 |
| CC[C@@H]1c2ccc(C(=O)NCc3ccc(S(=O)(=O)NC)cn3)cc2CN1C[C@H]1CC[C@H](C(F)(F)F)CC1 [Compound 23b] | 100 to 1000 | < 100 |
| CCS(=O)(=O)c1ccc(CNC(=O)c2ccc3c(c2)CN(CC2CCC(C(F)(F)F)OC2)[C@H]3C(C)C)nc1 (single isomer, unassigned) [Compound 16b] | < 100 |  |
| CCS(=O)(=O)c1ccc([C@H](CCO)NC(=O)c2ccc3c(c2)CN(C[C@H]2CC[C@H](C(F)(F)F)CC2)[C@H]3C(C)C)cc1 [Compound 6a] | < 100 | < 100 |
| CCS(=O)(=O)c1ccc([C@@H](CO)NC(=O)c2ccc3c(c2)CN(C[C@H]2CC[C@H](C(F)(F)F)CC2)[C@@H]3C(C)C)cc1 [Compound 3d] | > 1000 | < 100 |
| CCS(=O)(=O)c1ccc(CNC(=O)c2ccc3c(c2)C(=O)N(Cc2ccc(C(F)(F)F)cc2)C3C(C)C)cc1 (single isomer, unassigned) [Compound 26a, N-(4-(ethylsulfonyl)benzyl)-1-isopropyl-3-oxo-2-(4-(trifluoromethyl)benzyl)isoindoline-5-carboxamide] | < 100 | < 100 |
| CCS(=O)(=O)c1ccc(CNC(=O)c2ccc3c(c2)CN(C[C@H]2CO[C@H](C(F)(F)F)OC2)[C@H]3C(C)C)nc1 (single isomer, unassigned) [Compound 32b] | > 1000 | < 100 |
| CCS(=O)(=O)c1ccc([C@@H](CO)NC(=O)c2ccc3c(c2)CN(C[C@H]2CC[C@H](C(F)(F)F)CC2)[C@H]3C(C)C)cc1 [Compound 3c] | < 100 | < 100 |
| CCS(=O)(=O)c1ccc(CNC(=O)c2ccc3c(c2)CN(CC2CCC(C(F)(F)F)OC2)[C@H]3C(C)C)nc1 (single isomer, unassigned) [Compound 16a] | < 100 | < 100 |
| CCS(=O)(=O)N1CCC(CNC(=O)c2ccc3c(c2)CN(CC2CCC(OC)(C(F)(F)F)CC2)C3C(C)C)CC1 (single isomer, unassigned) [Compound 13a, N-((1-(ethylsulfonyl)piperidin-4-yl)methyl)-1-isopropyl-2-((4-methoxy-4-(trifluoromethyl)cyclohexyl)methyl)isoindoline-5-carboxamide] | 100 to 1000 | < 100 |
| CCS(=O)(=O)N1CCC(CNC(=O)c2ccc3c(c2)CN(CC2CCC(OC)(C(F)(F)F)CC2)C3C(C)C)CC1 (centres unmarked) [Compound 13c and 13d, N-((1-(ethylsulfonyl)piperidin-4-yl)methyl)-1-isopropyl-2-((4-methoxy-4-(trifluoromethyl)cyclohexyl)methyl)isoindoline-5-carboxamide] |  | 100 to 1000 |
| CCS(=O)(=O)c1ccc(CNC(=O)c2ccc3c(c2)C(=O)N(Cc2ccc(C(F)(F)F)cc2)C3C(C)C)nc1 (centres unmarked) [Compound 27] | 100 to 1000 | < 100 |
| CC[C@H]1c2ccc(C(=O)N[C@@H](COC(N)=O)c3ccc(S(=O)(=O)CC)cc3)cc2CN1C[C@H]1CC[C@H](C(F)(F)F)CC1 (single isomer, unassigned) [Compound 24a] | < 100 | < 100 |

| Compound | IC50 [1] [nM] | Ki [2] [nM] |
| --- | --- | --- |
| CCS(=O)(=O)c1ccc(CNC(=O)c2ccc3c(c2)CN(CC2CCC(O)(C(F)(F)F)CC2)C3C(C)C)cc1 (single isomer, unassigned) [Compound 12b, N-(4-(ethylsulfonyl)benzyl)-2-((4-hydroxy-4-(trifluoromethyl)cyclohexyl)methyl)-1-isopropylisoindoline-5-carboxamide] | > 1000 | < 100 |
| CC(C)[C@H]1c2ccc(C(=O)NCC3CCN(S(C)(=O)=O)CC3)cc2CN1C[C@H]1CC[C@H](C(F)(F)F)CC1 [Compound 4a] | < 100 | < 100 |
| CCO[C@H]1CC[C@H](CN2Cc3cc(C(=O)NCc4ccc(S(=O)(=O)CC)cn4)ccc3[C@@H]2C(C)C)CC1 (single isomer, unassigned) [Compound 7a, 2-((trans-4-ethoxycyclohexyl)methyl)-N-((5-(ethylsulfonyl)pyridin-2-yl)methyl)-1-isopropylisoindoline-5-carboxamide] | < 100 | < 100 |
| CCC1(C)c2ccc(C(=O)NCc3ccc(S(=O)(=O)CC)cc3)cc2C(=O)N1CC1CCC(C(F)(F)F)CC1 (centres unmarked) [Compound 31, 1-ethyl-N-(4-(ethylsulfonyl)benzyl)-1-methyl-3-oxo-2-((4-(trifluoromethyl)cyclohexyl)methyl)isoindoline-5-carboxamide] |  | > 1000 |
| CCS(=O)(=O)c1ccc(CNC(=O)c2ccc3c(c2)C(=O)N(Cc2ccc(C(F)(F)F)cc2)C3C(C)C)cc1 (single isomer, unassigned) [Compound 26b, N-(4-(ethylsulfonyl)benzyl)-1-isopropyl-3-oxo-2-(4-(trifluoromethyl)benzyl)isoindoline-5-carboxamide] | 100 to 1000 | < 100 |
| CC[C@H]1c2ccc(C(=O)NCc3ccc(S(=O)(=O)NC)cn3)cc2CN1C[C@H]1CC[C@H](C(F)(F)F)CC1 [Compound 23a] | < 100 | < 100 |
| CCO[C@H]1CC[C@H](CN2Cc3cc(C(=O)NCc4ccc(S(=O)(=O)CC)cn4)ccc3[C@H]2C(C)C)CC1 (single isomer, unassigned) [Compound 7b, 2-((trans-4-ethoxycyclohexyl)methyl)-N-((5-(ethylsulfonyl)pyridin-2-yl)methyl)-1-isopropylisoindoline-5-carboxamide] |  | > 1000 |
| CCS(=O)(=O)c1ccc([C@H](CO)NC(=O)c2ccc3c(c2)CN(C[C@H]2CC[C@H](C(F)(F)F)CC2)[C@@H]3C(C)C)cc1 [Compound 3b] | 100 to 1000 | < 100 |
| COC1(C(F)(F)F)CCC(CN2Cc3cc(C(=O)NCC4CCN(S(C)(=O)=O)CC4)ccc3[C@@H]2C(C)C)CC1 (single isomer, unassigned) [Compound 14b] | > 1000 | < 100 |
| CC(C)[C@@H]1c2ccc(C(=O)NCC3CCN(S(C)(=O)=O)CC3)cc2CN1C[C@H]1CC[C@H](C(F)(F)F)CC1 [Compound 4b] |  | 100 to 1000 |
| CCS(=O)(=O)N1CCC(CNC(=O)c2ccc3c(c2)CN(CC2CCC(OC)(C(F)(F)F)CC2)C3C(C)C)CC1 (single isomer, unassigned) [Compound 13b, N-((1-(ethylsulfonyl)piperidin-4-yl)methyl)-1-isopropyl-2-((4-methoxy-4-(trifluoromethyl)cyclohexyl)methyl)isoindoline-5-carboxamide] | < 100 | < 100 |
| CC[C@H]1c2ccc(C(=O)N[C@@H](COC(N)=O)c3ccc(S(=O)(=O)CC)cc3)cc2CN1C[C@H]1CC[C@H](C(F)(F)F)CC1 (single isomer, unassigned) [Compound 24b] | > 1000 | < 100 |
| CC[C@H]1c2ccc(C(=O)NCc3ccc(S(=O)(=O)NC)cc3)cc2CN1C[C@H]1CC[C@H](C(F)(F)F)CC1 [Compound 22] | < 100 | < 100 |
| CCS(=O)(=O)c1ccc(CNC(=O)c2ccc3c(c2)CN(CC2CCC(O)(C(F)(F)F)CC2)C3C(C)C)cc1 (single isomer, unassigned) [Compound 12a, N-(4-(ethylsulfonyl)benzyl)-2-((4-hydroxy-4-(trifluoromethyl)cyclohexyl)methyl)-1-isopropylisoindoline-5-carboxamide] | < 100 | < 100 |
| CCS(=O)(=O)c1ccc([C@H](CO)NC(=O)c2ccc3c(c2)C(=O)N(Cc2ccc(C(F)(F)F)cc2)C3C(C)C)cc1 (some centres unmarked) [Compound 28] | < 100 | < 100 |
| CCS(=O)(=O)c1ccc([C@H](CO)NC(=O)c2ccc3c(c2)CN(C[C@H]2CC[C@H](C(F)(F)F)CC2)[C@H]3C(C)C)cc1 [Compound 3a] | < 100 | < 100 |
